From patent US20140113898A1, “BISARYLSULFONE AND DIALKYLARYLSULFONE COMPOUNDS AS CALCIUM CHANNEL BLOCKERS” (Zalicus Pharmaceuticals Ltd., priority 2010, published 2014)
Where two headings read alike, the source gives them in different places.

Experiments:
Assay type in all cases: cell-based
[1] = target: T1, CaV2.2 (Homo sapiens, UniProt Q00975); assay: High-throughput CaV2.2/Kir2.3 FLIPR fluorescent assay; details: Fluo-4 FLIPR, closed or inactivated state not stated, read-out: FLIPR data CaV2.2
T1 construct: expressed in transfected cells; host or cells: unnamed doxycycline-inducible cell line
How it was run: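 Doxycycline-induced cells moved to 29 °C on assay day and were loaded with 4.4 μM Fluo-4. They were held in 2 mM KCl (closed state) or 12.5 mM KCl (inactivated state) buffer, pH 7.4, then depolarized with 130 mM KCl. Fluorescence was read 3 min on FLIPR, and IC50 was obtained from logistic fits.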

[2] = target: T2, CaV3.1 (Homo sapiens, UniProt O43497); assay: High-throughput CaV3.1 T-type FLIPR fluorescent assay; details: Fluo-4 FLIPR
T2 construct: expressed in transfected cells; host or cells: unnamed doxycycline-inducible cell line
How it was run: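 Doxycycline-induced CaV3.1 cells were loaded with Fluo-4 at 29 °C and pre-incubated with compound for 20 min at 29 °C in low-Ca2+ buffer (0.001 mM CaCl2, pH 7.2). Calcium entry was triggered by buffer containing 6 mM CaCl2, and Fluo-4 fluorescence was recorded on FLIPR for 3 min. IC50 came from logistic fits.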

[3] = target: T3, CaV3.2 (Homo sapiens, UniProt O95180); assay: High-throughput CaV3.2/Kir2.3 T-type FLIPR fluorescent assay; details: Fluo-4 FLIPR, closed or inactivated state not stated
T3 construct: expressed in transfected cells; host or cells: unnamed doxycycline-inducible cell line
How it was run: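 Doxycycline-induced cells loaded with Fluo-4, preincubated 20 min at 29°C with compound in 2 mM KCl (closed-state) or 7.6 mM KCl (inactivated-state) buffer, pH 7.4. Calcium entry triggered by 12 mM or 14.5 mM KCl respectively; fluorescence read 3 min by FLIPR, IC50 from logistic fit.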

T1 sequence (Q00975 whole entry): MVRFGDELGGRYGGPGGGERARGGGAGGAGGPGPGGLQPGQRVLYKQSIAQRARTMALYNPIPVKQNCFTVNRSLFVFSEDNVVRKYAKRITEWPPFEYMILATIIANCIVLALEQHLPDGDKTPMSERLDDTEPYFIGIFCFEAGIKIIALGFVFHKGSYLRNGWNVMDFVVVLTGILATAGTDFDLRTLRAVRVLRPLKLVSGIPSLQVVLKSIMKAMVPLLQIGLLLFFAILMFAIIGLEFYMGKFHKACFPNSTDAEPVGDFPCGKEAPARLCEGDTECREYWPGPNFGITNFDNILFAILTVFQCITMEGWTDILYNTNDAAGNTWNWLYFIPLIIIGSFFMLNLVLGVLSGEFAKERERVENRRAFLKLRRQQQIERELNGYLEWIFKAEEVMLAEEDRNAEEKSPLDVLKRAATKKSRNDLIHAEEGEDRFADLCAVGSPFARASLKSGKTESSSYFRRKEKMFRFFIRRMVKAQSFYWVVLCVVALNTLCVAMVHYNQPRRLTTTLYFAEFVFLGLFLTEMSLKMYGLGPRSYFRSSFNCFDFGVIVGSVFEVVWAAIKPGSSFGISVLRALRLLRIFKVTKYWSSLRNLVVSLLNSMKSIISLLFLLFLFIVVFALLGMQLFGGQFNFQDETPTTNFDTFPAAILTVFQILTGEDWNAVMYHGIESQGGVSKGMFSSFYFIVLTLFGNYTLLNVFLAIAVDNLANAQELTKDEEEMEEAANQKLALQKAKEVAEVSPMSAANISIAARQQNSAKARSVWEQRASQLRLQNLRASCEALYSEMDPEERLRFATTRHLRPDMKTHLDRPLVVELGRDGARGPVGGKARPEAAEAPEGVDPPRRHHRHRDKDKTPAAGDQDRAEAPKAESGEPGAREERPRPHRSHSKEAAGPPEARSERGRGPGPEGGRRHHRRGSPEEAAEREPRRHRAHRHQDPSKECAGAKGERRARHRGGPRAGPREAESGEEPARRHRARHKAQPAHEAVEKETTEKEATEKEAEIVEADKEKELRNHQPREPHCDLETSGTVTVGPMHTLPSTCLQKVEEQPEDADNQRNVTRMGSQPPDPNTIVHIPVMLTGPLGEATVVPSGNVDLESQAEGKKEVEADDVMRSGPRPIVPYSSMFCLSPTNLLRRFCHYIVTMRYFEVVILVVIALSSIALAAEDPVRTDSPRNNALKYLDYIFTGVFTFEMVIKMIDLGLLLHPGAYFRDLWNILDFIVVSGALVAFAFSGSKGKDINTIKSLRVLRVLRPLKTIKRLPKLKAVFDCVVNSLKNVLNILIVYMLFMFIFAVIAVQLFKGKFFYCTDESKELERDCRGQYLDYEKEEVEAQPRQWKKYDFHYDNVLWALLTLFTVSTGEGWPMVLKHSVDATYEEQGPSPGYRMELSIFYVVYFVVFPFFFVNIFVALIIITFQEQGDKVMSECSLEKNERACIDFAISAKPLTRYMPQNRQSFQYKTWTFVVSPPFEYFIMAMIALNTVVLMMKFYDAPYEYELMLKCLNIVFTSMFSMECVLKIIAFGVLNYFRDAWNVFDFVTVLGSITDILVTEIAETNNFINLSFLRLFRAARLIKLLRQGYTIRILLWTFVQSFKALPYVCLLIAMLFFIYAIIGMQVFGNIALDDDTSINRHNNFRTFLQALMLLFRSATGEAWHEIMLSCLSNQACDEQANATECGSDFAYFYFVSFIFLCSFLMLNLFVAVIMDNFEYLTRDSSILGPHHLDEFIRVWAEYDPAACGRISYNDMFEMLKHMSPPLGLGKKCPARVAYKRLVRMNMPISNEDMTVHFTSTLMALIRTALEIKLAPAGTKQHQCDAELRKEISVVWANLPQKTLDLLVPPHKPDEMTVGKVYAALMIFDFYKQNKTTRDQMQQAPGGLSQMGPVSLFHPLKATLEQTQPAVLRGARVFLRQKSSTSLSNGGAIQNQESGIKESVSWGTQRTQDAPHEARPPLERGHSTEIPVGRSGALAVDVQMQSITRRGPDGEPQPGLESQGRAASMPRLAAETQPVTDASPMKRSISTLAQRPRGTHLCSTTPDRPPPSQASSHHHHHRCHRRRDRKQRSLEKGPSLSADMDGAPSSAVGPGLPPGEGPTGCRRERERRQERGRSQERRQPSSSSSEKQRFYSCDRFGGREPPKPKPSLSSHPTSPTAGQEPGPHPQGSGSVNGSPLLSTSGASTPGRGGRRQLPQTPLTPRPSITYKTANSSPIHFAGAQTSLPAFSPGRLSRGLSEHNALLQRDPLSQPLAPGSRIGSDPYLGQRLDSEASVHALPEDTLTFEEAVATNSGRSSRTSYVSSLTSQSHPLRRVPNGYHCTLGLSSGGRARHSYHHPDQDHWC
T1 sequence (P54284 whole entry partner): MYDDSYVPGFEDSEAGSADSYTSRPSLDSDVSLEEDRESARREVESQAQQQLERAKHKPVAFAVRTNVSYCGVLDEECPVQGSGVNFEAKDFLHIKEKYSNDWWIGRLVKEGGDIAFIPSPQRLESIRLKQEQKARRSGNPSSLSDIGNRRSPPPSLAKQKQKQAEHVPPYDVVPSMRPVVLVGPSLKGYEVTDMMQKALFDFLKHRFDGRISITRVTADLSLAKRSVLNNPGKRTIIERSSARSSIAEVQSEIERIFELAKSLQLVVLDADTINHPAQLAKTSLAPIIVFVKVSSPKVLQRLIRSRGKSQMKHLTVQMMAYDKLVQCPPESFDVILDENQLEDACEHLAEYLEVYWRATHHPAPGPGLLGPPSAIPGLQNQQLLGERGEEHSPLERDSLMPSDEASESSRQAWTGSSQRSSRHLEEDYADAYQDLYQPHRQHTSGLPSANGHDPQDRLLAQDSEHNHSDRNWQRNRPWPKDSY
T1 sequence (P54289 25-946 partner limits assumed): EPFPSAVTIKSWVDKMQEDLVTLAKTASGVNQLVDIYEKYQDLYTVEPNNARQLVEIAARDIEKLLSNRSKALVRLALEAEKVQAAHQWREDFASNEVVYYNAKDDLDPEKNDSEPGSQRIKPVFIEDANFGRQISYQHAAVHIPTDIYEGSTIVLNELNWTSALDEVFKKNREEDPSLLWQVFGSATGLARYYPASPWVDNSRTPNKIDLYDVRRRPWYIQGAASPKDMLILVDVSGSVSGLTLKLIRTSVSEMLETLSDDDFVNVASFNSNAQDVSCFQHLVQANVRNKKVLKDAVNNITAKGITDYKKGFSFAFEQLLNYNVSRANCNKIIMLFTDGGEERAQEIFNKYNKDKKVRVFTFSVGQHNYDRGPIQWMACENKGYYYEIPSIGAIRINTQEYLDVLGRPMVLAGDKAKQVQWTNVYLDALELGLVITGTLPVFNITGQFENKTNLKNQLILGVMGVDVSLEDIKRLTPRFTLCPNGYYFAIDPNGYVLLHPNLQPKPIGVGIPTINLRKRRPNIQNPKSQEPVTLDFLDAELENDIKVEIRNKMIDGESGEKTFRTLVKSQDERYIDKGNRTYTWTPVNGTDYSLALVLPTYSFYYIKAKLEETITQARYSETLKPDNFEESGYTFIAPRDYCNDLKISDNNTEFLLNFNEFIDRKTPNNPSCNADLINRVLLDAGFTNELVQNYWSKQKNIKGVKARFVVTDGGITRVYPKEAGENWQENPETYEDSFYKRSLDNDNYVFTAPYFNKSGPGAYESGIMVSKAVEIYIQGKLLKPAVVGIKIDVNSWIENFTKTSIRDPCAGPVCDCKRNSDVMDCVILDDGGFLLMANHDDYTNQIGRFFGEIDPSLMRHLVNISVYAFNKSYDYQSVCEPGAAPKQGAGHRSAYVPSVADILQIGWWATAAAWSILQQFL
T1 sequence (P54289 947-1103 partner limits assumed): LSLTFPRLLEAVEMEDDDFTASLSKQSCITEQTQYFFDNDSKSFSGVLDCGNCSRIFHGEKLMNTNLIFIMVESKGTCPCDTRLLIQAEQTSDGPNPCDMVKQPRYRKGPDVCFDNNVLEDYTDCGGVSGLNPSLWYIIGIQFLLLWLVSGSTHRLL

IC50 ([1]; Table 5) [nM] | IC50 ([2]; Table 5) [nM] | IC50 ([3]; Table 5) [nM] | IC50 ([1]; Table 4) [nM] | IC50 ([2]; Table 4) [nM] | IC50 ([3]; Table 4) [nM] | Compound
460 | 3850 | 2860 |  |  |  | CC(C)(CNC(=O)C(C)(C)S(=O)(=O)c1cccc(C(F)(F)F)c1)S(=O)(=O)c1cccc(C(F)(F)F)c1 [Compound 149, 2-methyl-N-(2-methyl-2-((3-(trifluoromethyl)phenyl)sulfonyl)propyl)-2-((3-(trifluoromethyl)phenyl)sulfonyl)propanamide]
 |  |  | 660 | 3640 | 3740 | N[C@H](C(=O)NCc1ccc(S(=O)(=O)c2cccc(C(F)(F)F)c2)cc1)c1ccccc1 [Compound 67, (S)-2-amino-2-phenyl-N-(4-((3-(trifluoromethyl)phenyl)sulfonyl)benzyl)acetamide]
 |  |  | 100 | 920 | 1010 | CC(C)S(=O)(=O)c1cc(C(F)(F)F)cnc1C(=O)NCc1ccc(S(=O)(=O)c2cccc(C(F)(F)F)c2)cc1 [Compound 33, 3-(isopropylsulfonyl)-5-(trifluoromethyl)-N-(4-((3-(trifluoromethyl)phenyl)sulfonyl)benzyl)picolinamide]
1160 | 2160 | 4960 |  |  |  | CC(C)(C(=O)N1CCC(c2cccc(Cl)c2)CC1)S(=O)(=O)c1cccc(C(F)(F)F)c1 [Compound 133, 1-(4-(3-chlorophenyl)piperidin-1-yl)-2-methyl-2-((3-(trifluoromethyl)phenyl)sulfonyl)propan-1-one]
 |  |  | 140 | 1630 | 940 | O=C(NCc1cccc(S(=O)(=O)c2cccc(C(F)(F)F)c2)c1)c1ccc(Cl)c(F)c1 [Compound 17, 4-chloro-3-fluoro-N-(3-((3-(trifluoromethyl)phenyl)sulfonyl)benzyl)benzamide]
 |  |  | 310 | 1110 | 510 | COc1cc(C(=O)NCc2cccc(S(=O)(=O)c3cccc(C(F)(F)F)c3)c2)cc(Cl)n1 [Compound 30]
 |  |  | 160 | 1400 | 370 | O=C(NCc1cccc(S(=O)(=O)c2cccc(C(F)(F)F)c2)c1)c1cn2cc(C(F)(F)F)ccc2n1 [Compound 32, 6-(trifluoromethyl)-N-(3-((3-(trifluoromethyl)phenyl)sulfonyl)benzyl)imidazo[1,2-a]pyridine-2-carboxamide]
 |  |  | 760 | 1290 | 620 | O=C(NCc1ccc(S(=O)(=O)c2cccc(C(F)(F)F)c2)cc1)c1ccc(Cl)c(F)c1 [Compound 1, 4-chloro-3-fluoro-N-(4-((3-(trifluoromethyl)phenyl)sulfonyl)benzyl)benzamide]
1290 | 7950 | 5840 |  |  |  | CN(CCc1c[nH]c2ccc(F)cc12)C(=O)C(C)(C)S(=O)(=O)c1cccc(C(F)(F)F)c1 [Compound 135, N-(2-(5-fluoro-1H-indol-3-yl)ethyl)-N,2-dimethyl-2-((3-(trifluoromethyl)phenyl)sulfonyl)propanamide]
 |  |  | 490 | 2100 | 970 | O=C(NCc1cccc(S(=O)(=O)c2cccc(C(F)(F)F)c2)c1)c1ccc(C(F)(F)F)nc1 [Compound 19, 6-(trifluoromethyl)-N-(3-((3-(trifluoromethyl)phenyl)sulfonyl)benzyl)nicotinamide]
 |  |  | 830 | 2060 | 1250 | O=C(NCc1ccc(S(=O)(=O)c2cccc(C(F)(F)F)c2)cn1)c1cn2cc(C(F)(F)F)ccc2n1 [Compound 103, 6-(trifluoromethyl)-N-((5-((3-(trifluoromethyl)phenyl)sulfonyl)pyridin-2-yl)methyl)imidazo[1,2-a]pyridine-2-carboxamide]
 |  |  | 950 | 1500 | 850 | O=C(NCc1ccc(S(=O)(=O)c2cccc(C(F)(F)F)c2)cc1)c1cc(F)cc(Cl)c1 [Compound 2, 3-chloro-5-fluoro-N-(4-((3-(trifluoromethyl)phenyl)sulfonyl)benzyl)benzamide]
 |  |  | 490 | 2850 | 1690 | O=C(NCc1ccc(S(=O)(=O)c2cccc(C(F)(F)F)c2)cc1)c1ccnc(C(F)(F)F)n1 [Compound 9, 2-(trifluoromethyl)-N-(4-((3-(trifluoromethyl)phenyl)sulfonyl)benzyl)pyrimidine-4-carboxamide]
 |  |  | 820 | 6530 | 3970 | Cn1nc(C(F)(F)F)cc1C(=O)NCc1cc(S(=O)(=O)c2cccc(C(F)(F)F)c2)ccn1 [Compound 109, 1-methyl-3-(trifluoromethyl)-N-((4-((3-(trifluoromethyl)phenyl)sulfonyl)pyridin-2-yl)methyl)-1H-pyrazole-5-carboxamide]
1610 | 4530 | 3000 |  |  |  | CC(C)(C(=O)NC1CCN(c2ccc(C(F)(F)F)cc2)CC1)S(=O)(=O)c1cccc(C(F)(F)F)c1 [Compound 137, 2-methyl-N-(1-(4-(trifluoromethyl)phenyl)piperidin-4-yl)-2-((3-(trifluoromethyl)phenyl)sulfonyl)propanamide]
 |  |  | 260 | 6130 | 800 | O=C1c2ccc(C(F)(F)F)nc2CN1Cc1cccc(S(=O)(=O)c2cccc(C(F)(F)F)c2)c1 [Compound 57, 2-(trifluoromethyl)-6-(3-((3-(trifluoromethyl)phenyl)sulfonyl)benzyl)-6,7-dihydro-5H-pyrrolo[3,4-b]pyridin-5-one]
 |  |  | 590 | 270 | 2130 | CS(=O)(=O)c1cc(C(F)(F)F)ccc1C(=O)NCc1ccccc1S(=O)(=O)c1cccc(C(F)(F)F)c1 [Compound 47, 2-(methylsulfonyl)-4-(trifluoromethyl)-N-(2-((3-(trifluoromethyl)phenyl)sulfonyl)benzyl)benzamide]
 |  |  | 410 | 3240 | 550 | CS(=O)(=O)c1cc(C(F)(F)F)cnc1C(=O)NCc1cccc(S(=O)(=O)c2cccc(C(F)(F)F)c2)c1 [Compound 24, 3-(methylsulfonyl)-5-(trifluoromethyl)-N-(3-((3-(trifluoromethyl)phenyl)sulfonyl)benzyl)picolinamide]
 |  |  | 220 | 1570 | 840 | O=C(NCc1cccc(S(=O)(=O)c2cccc(C(F)(F)F)c2)c1)c1cc(F)cc(Cl)c1 [Compound 18, 3-chloro-5-fluoro-N-(3-((3-(trifluoromethyl)phenyl)sulfonyl)benzyl)benzamide]
 |  |  | 510 | 1340 | 650 | O=C(NCc1ccc(S(=O)(=O)c2cccc(C(F)(F)F)c2)cc1)c1ccc(C(F)(F)F)nc1 [Compound 3, 6-(trifluoromethy)-N-(4-((3-(trifluoromethyl)phenyl)sulfonyl)benzyl)nicotinamide]
 |  |  | 690 | 1970 | 980 | CS(=O)(=O)c1cc(C(=O)NCc2ccc(S(=O)(=O)c3cccc(C(F)(F)F)c3)cc2)cc(C(F)(F)F)n1 [Compound 10, 2-(methylsulfonyl)-6-(trifluoromethyl)-N-(4-((3-(trifluoromethyl)phenyl)sulfonyl)benzyl)isonicotinamide]
 |  |  | 850 | 2380 | 430 | COc1cc(C(=O)NCc2ccc(S(=O)(=O)c3cccc(C(F)(F)F)c3)cc2)cc(Cl)n1 [Compound 14, 2-chloro-6-methoxy-N-(4-((3-(trifluoromethyl)phenyl)sulfonyl)benzyl)isonicotinamide]
